The target of assay [1] is T1, Protein farnesyltransferase (Homo sapiens, UniProt P49354+P49356). Put plainly: Inhibitory activity against human farnesyltransferase. It counts as protein-complex assay.
The target of assay [2] is T1, Protein farnesyltransferase. Description: Inhibitory activity in COS cell Ha-Ras processing assay. It is filed as functional, cell-based, Chlorocebus aethiops.

Broadly, the IC50 is the concentration that inhibits the measured activity by half. Read a low IC50 as inhibition by little substance. In assay [1], `O=C(NCc1cccnc1)C1CN(C2c3ccc(Cl)cc3CCc3cc(Br)cnc32)CCN1C(=O)CCc1ccccc1` (stereo not drawn) came in with an IC50 of 30 nM.
On the same count and under the same terms, to `O=C(CC1CN(C2c3ccc(Cl)cc3CCc3cc(Br)cnc32)CCN1C(=O)Cc1ccncc1)NC1CC1` (stereo not drawn) belongs 70 nM.
In assay [1], `CNC(=O)C1CN(C2c3ccc(Cl)cc3CCc3cc(Br)cnc32)CCN1C(=O)Cc1ccc(Cl)cc1` (stereo not drawn) had an IC50 of 100 nM.
With `O=C(NCc1cccnc1)C1CCCN(C2c3ccc(Cl)cc3CCc3cc(Br)cnc32)C1` (stereo not drawn), the half-maximal inhibitory concentration (IC50) amounted to 120 nM in assay [1] and 2000 nM in assay [2].
As to `O=C(NCC1CC1)C1CN(C2c3ccc(Cl)cc3CCc3cc(Br)cnc32)CCN1C(=O)Cc1ccncc1` (stereo not drawn), in assay [1], the midpoint of inhibition, the IC50, lay at 50 nM.
Consider `O=C(CC1CN(C2c3ccc(Cl)cc3CCc3cc(Br)cnc32)CCN1C(=O)CCc1ccccc1)NCc1cccnc1` (stereo not drawn), for which the IC50 amounted to 960 nM in assay [1] and 2000 nM in assay [2].

The record behind these values is ChEMBL document CHEMBL1141236, “Surfing the piperazine core of tricyclic farnesyltransferase inhibitors” (Bioorg Med Chem Lett, 2005).
